Usually IC50 stands for the concentration that gives 50% inhibition.

For the first assay, the target named is T1, MR (Homo sapiens, UniProt P08235).
T1 construct: expressed in transfected cells; host or cells: Huh7 human liver cells (ATCC), transient transfection with FuGENE 6
T1 sequence (P08235 726-964 limits assumed): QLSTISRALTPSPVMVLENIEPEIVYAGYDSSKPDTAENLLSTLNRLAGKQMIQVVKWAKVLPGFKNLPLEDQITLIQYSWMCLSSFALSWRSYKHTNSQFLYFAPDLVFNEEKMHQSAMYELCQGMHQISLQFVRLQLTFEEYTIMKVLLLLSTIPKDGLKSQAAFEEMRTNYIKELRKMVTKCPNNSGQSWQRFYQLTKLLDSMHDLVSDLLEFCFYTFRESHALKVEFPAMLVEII
Kind of assay: Cell-based reporter assay (Gal4-MR-LBD luciferase, antagonist mode).
Conditions: not given
As for the experimental part:
To measure the ability of test compound in the present invention to modulate the activity of MR (agonize, antagonize, partially agonize, partially antagonize), bioassays were performed that measured the modulation of reporter gene expression. Cells were transiently transfected with a luciferase reporter gene under the control of a Gal4 response element (Gal4-RE-luc) and a plasmid containing the Gal4 DNA binding domain fused to the MR ligand binding domain (Gal4-MR-LBD). Agonists can bind to and activate the MR-LBD, which activates the expression of the luciferase reporter gene through interaction with the Gal4 response element. […] Antagonists can compete for binding to the NHR-LBD and decrease the agonist-induced transcriptional activity of the reporter gene. Therefore, measurement of luciferase activity allowed quantitative determinations of the reporter transcription in the presence of either agonists or competitive antagonists.
The final concentration of DMSO in the test plate was 0.5%. Following an overnight incubation with compound, 25 μL of Steady-Glow™ lysis buffer with luciferase substrate (Promega Corporation, E2550) was added directly to the cells. After a 30-minute incubation to completely lyse the cells, the microplates were counted in an Envision™ Multilabel Reader (Perkin Elmer) in single photon counting mode.
On the technique in general: A reporter such as luciferase makes a cellular process visible.
For the compound `C[C@@H]1CN(c2ccc3c(n2)NC(=O)CO3)[C@@H]2c3ccccc3C[C@@H]2O1` (single isomer, unassigned) [Example 23], the 50% inhibitory concentration (IC50) was determined as 284 nM.
Compound `C[C@@H]1CN(c2ccc3ccc(=O)[nH]c3c2)[C@H](c2ccccc2)CO1` [Example 59, 7-((2R,5R)-2-methyl-5-phenylmorpholino)quinolin-2(1H)-one] came in with an IC50 of 703 nM.
`O=C1COc2ccc(N3C[C@@H](CF)OC[C@H]3c3ccccc3)nc2N1` [Example 39, 6-((2S,5R)-2-(fluoromethyl)-5-phenylmorpholino)-2H-pyrido[3,2-b][1,4]oxazin-3(4H)-one] yielded an IC50 of 86.7 nM.
Same read-out and setting: the figure for `C[C@H]1CN(c2cc3c(cn2)OCC(=O)N3)[C@@H](c2ccccc2Cl)CO1` (racemic) [Example 65, (±)-7-(cis-5-(2-chlorophenyl)-2-methylmorpholino)-1H-pyrido[3,4-b][1,4]oxazin-2(3H)-one] is 631 nM.
On the same count and under the same terms, to `C[C@@H]1CN(c2ncc3c(n2)NC(=O)CO3)[C@H](c2ccccc2)CO1` [Example 2, 2-((2R,5R)-2-methyl-5-phenylmorpholino)-6H-pyrimido[5,4-b][1,4]oxazin-7(8H)-one] belongs 266 nM; to `O=C1COc2ccc(N3CCOC[C@H]3c3ccccc3)cc2N1` [Example 21, (R)-6-(3-phenylmorpholino)-2H-benzo[b][1,4]oxazin-3(4H)-one], 583 nM.
The compound `C[C@@H]1CN(c2ccc3c(n2)NC(=O)CO3)CCO1` (single isomer, unassigned) [Example 19] gave an IC50 of 5610 nM.
The compound `C[C@H]1CN(c2ncc3c(n2)NC(=O)CO3)[C@@H](c2ccccc2Cl)CO1` (racemic) [Example 64, (±)-2-(cis-5-(2-chlorophenyl)-2-methylmorpholino)-6H-pyrimido[5,4-b][1,4]oxazin-7(8H)-one] gave an IC50 of 449 nM.
Same read-out and setting: to `C[C@@H]1CN(c2nc3c(cc2F)OCC(=O)N3)[C@H](c2ccccc2)CO1` [Example 37, 7-fluoro-6-((2R,5R)-2-methyl-5-phenylmorpholino)-2H-pyrido[3,2-b][1,4]oxazin-3(4H)-one] belongs 1440 nM; to `COc1ccccc1[C@H]1CO[C@@H](C)CN1c1cc2c(cn1)OCC(=O)N2` (racemic) [Example 62, (±)-7-(cis-5-(2-methoxyphenyl)-2-methylmorpholino)-1H-pyrido[3,4-b][1,4]oxazin-2(3H)-one], 7910 nM; to `O=C1COc2ccc(N3C[C@@H](C4CC4)OC[C@H]3c3ccccc3)nc2N1` [Example 31, 6-((2R,5R)-2-cyclopropyl-5-phenylmorpholino)-2H-pyrido[3,2-b][1,4]oxazin-3(4H)-one], 913 nM.
The same measure, in the same setting: the figure for `CC1(C)OCCN(c2ccc3c(n2)NC(=O)CO3)C1c1ccccc1` (stereo not drawn) [Example 53, 6-(2,2-dimethyl-3-phenylmorpholino)-2H-pyrido[3,2-b][1,4]oxazin-3(4H)-one] is 7450 nM; for `O=C1COc2ccc(N3CCOCC34CCc3ccccc34)nc2N1` (stereo not drawn) [Example 36, 6-(2,3-dihydrospiro[indene-1,3′-morpholin]-4′-yl)-2H-pyrido[3,2-b][1,4]oxazin-3(4H)-one] it is 1740 nM; for `C[C@@H]1CN(c2ncc3c(n2)NC(=O)CO3)[C@H](c2ccccc2F)CO1` (single isomer, unassigned) [Example 35] it is 104 nM.
The same measure, in the same setting: to `C[C@@H]1CN(c2cccc(NS(C)(=O)=O)n2)[C@H](c2ccccc2)CO1` [Example 27, N-(6-((2R,5R)-2-methyl-5-phenylmorpholino)pyridin-2-yl)methanesulfonamide] belongs 1230 nM; to `C[C@H]1CN(c2cc3c(cn2)OCC(=O)N3)[C@@H](c2ccccc2F)CO1` (racemic) [Example 32, (±)-7-(cis-5-(2-fluorophenyl)-2-methylmorpholino)-1H-pyrido[3,4-b][1,4]oxazin-2(3H)-one], 111 nM; to `C[C@@H]1CN(c2cc3c(cn2)OCC(=O)N3)[C@H](c2ccccc2)[C@H](C)O1` [Example 43, 7-((2S,3R,6R)-2,6-dimethyl-3-phenylmorpholino)-1H-pyrido[3,4-b][1,4]oxazin-2(3H)-one], 395 nM.
In turn, `CC1(C)CN(c2ccc3c(n2)NC(=O)CO3)[C@H](c2ccccc2)CO1` [Example 13, (R)-6-(2,2-dimethyl-5-phenylmorpholino)-2H-pyrido[3,2-b][1,4]oxazin-3(4H)-one] showed an IC50 of 407 nM.
Same read-out and setting: to `O=C1COc2ccc(N3CCO[C@H]4Cc5ccccc5[C@H]43)nc2N1` [Example 20, 6-((4aR,9aS)-2,3,9,9a-tetrahydroindeno[2,1-b][1,4]oxazin-4(4aH)-yl)-2H-pyrido[3,2-b][1,4]oxazin-3(4H)-one] belongs 3000 nM; to `Cc1cc(N2CCOC[C@H]2c2ccccc2)cc2c1OCC(=O)N2` (single isomer, unassigned) [Example 22], 885 nM; to `C[C@H]1CN(c2ccc3c(n2)NC(=O)CO3)[C@@H]2c3ccccc3C[C@@H]2O1` (single isomer, unassigned) [Example 24], 1770 nM.
Still for that read-out and setting: to `C[C@@H]1CN(c2ccc3c(c2)NC(=O)CO3)[C@H](c2ccccc2)CO1` [Example 28, 6-((2R,5R)-2-methyl-5-phenylmorpholino)-2H-benzo[b][1,4]oxazin-3(4H)-one] belongs 24 nM; to `CCC1CN(c2ccc3c(n2)NC(=O)CO3)CCO1` (stereo not drawn) [Example 26, 6-(2-ethylmorpholino)-2H-pyrido[3,2-b][1,4]oxazin-3(4H)-one], 3370 nM.
The same measure, in the same setting: the figure for `C[C@@H]1CN(c2ncc3c(n2)NC(=O)CO3)[C@H](c2ccccc2)[C@H](C)O1` [Example 42, 2-((2S,3R,6R)-2,6-dimethyl-3-phenylmorpholino)-6H-pyrimido[5,4-b][1,4]oxazin-7(8H)-one] is 527 nM; for `O=C1COc2ccc(N3CCOC(c4ccccc4)C3c3ccccc3)cc2N1` (stereo not drawn) [Example 75, 6-(2,3-diphenylmorpholino)-2H-benzo[b][1,4]oxazin-3(4H)-one] it is 3080 nM.
As for `C[C@@H]1CN(c2cc3c(cn2)OCC(=O)N3)[C@H](c2ccccc2F)CO1` (single isomer, unassigned) [Example 33], the IC50 was 53.9 nM.
`C[C@@H]1CN(c2ncc3c(n2)NC(=O)CO3)[C@H](c2ccc(F)cc2)CO1` [Example 55, 2-((2R,5R)-5-(4-fluorophenyl)-2-methylmorpholino)-6H-pyrimido[5,4-b][1,4]oxazin-7(8H)-one] displayed an IC50 of 485 nM.
Compound `C[C@@H]1CN(c2nc3c(cc2C#N)OCC(=O)N3)[C@H](c2ccccc2)CO1` [Example 60, 6-((2R,5R)-2-methyl-5-phenylmorpholino)-3-oxo-3,4-dihydro-2H-pyrido[3,2-b][1,4]oxazine-7-carbonitrile] yielded an IC50 of 9560 nM.
Same read-out and setting: to `Cc1c(NS(C)(=O)=O)cccc1N1C[C@@H](C)OC[C@H]1c1ccccc1` [Example 63, N-(2-methyl-3-((2R,5R)-2-methyl-5-phenylmorpholino)phenyl)methanesulfonamide] belongs 4270 nM.

The assay is the same for the next values; noted with them: antagonist mode; decrease of EC80 aldosterone signal by 50%; Huh7 cells transfected with Gal4-MR-LBD and Gal4-RE-luc.
Regarding “(±)-2-(cis-5-(2-methoxyphenyl)-2-methylmorpholino)-6H-pyrimido[5,4-b][1,4]oxazin-7(8H)-one [Example 56]”, the IC50 came out at 5330 nM.

The values are drawn from patent publication US20110281854A1, “MORPHOLINE COMPOUNDS” (Pfizer Inc, priority 2010, published 2011).
